Assay results published in patent US5514715A, “Antimicrobial agent, FR109615 and production thereof” (Fujisawa Pharmaceutical Co., Ltd., priority 1987, dated 1996).
≈ marks a conversion by molar mass, not a printed value.

Legend:
[1] = system: C. pseudotropicalis FP584; test: Protective effect against fungi in experimental mice infection (Test 2); format: in vivo, ICR strain; conditions: Kluyveromyces marxianus, sc, 336 h; C. pseudotropicalis FP584, inoculum 2.0 × 10^7 cfu/head; cyclophosphamide-immunosuppressed mice; subcutaneous, 1 h after challenge then twice a day for 2 days; survival 14 days, probit method
Protocol: (§1) Test 2 (Protective effect of FR109615 against fungi in experimental mice infection) (1) Test animal 4 Weeks old mice, ICR strain, each weighing 18-21 g. One group consists of 10 mice. (2) Test method 4 Days before challenge, the test mice intraperitoneally received a saline solution of cyclophosphamide (immunosuppressant) ([…]). Each pf pathogenic microorganisms suspended in saline were injected into mice via the lateral tail vein. One hour after challenge, a saline solution of FR109615 was subcutaneously injected into the mice. This treatment was repeated twice a day for 2 days from the next day after challenge.

[2] = system: C. krusei FP585; test: as above; format: in vivo, ICR strain; conditions: Pichia kudriavzevii, sc, 336 h; C. krusei FP585, inoculum 2.0 × 10^7 cfu/head; cyclophosphamide-immunosuppressed mice; subcutaneous, 1 h after challenge then twice a day for 2 days; survival 14 days, probit method
Protocol: as §1

[3] = system: C. tropicalis 8001; test: as above; format: in vivo, ICR strain; conditions: Candida tropicalis, sc, 336 h; C. tropicalis 8001, inoculum 5.6 × 10^4 cfu/head; cyclophosphamide-immunosuppressed mice; subcutaneous, 1 h after challenge then twice a day for 2 days; survival 14 days, probit method
Protocol: as §1

[4] = system: C. stellatoidea FP588; test: as above; format: in vivo, ICR strain; conditions: Candida albicans, sc, 336 h; C. stellatoidea FP588, inoculum 2.0 × 10^6 cfu/head; cyclophosphamide-immunosuppressed mice; subcutaneous, 1 h after challenge then twice a day for 2 days; survival 14 days, probit method
Protocol: as §1

[5] = system: Candida albicans FP622; test: as above; format: in vivo, ICR strain; conditions: sc, 336 h; Candida albicans FP622, inoculum 4.8 × 10^4 cfu/head; cyclophosphamide-immunosuppressed mice; subcutaneous, 1 h after challenge then twice a day for 2 days; survival 14 days, probit method
Protocol: as §1

[6] = Solubility (physicochemical properties)
[7] = system: ICR mice; test: Acute toxicity (Test 4); format: in vivo, 4 weeks old); conditions: female, single intravenous injection, 1 g/kg
Protocol: The acute toxicity of FR109615 was determined to ICR mice (female, 4 weeks old) by a single intravenous injection.

[8] = system: Candida krusei; test: Antimicrobial activity, micro-broth dilution method (Test 1); format: cell-based; conditions: Pichia kudriavzevii, E. MEM, 37° C., 20 hours, 5% CO2, read-out: MIC (minimum inhibitory concentration)
Protocol: (§2) Test 1 (Antimicrobial activity)
(§3) Antimicrobial activity of FR109615 was measured by a conventional micro-broth dilution method using 96 well multi-trays.
(§4) A suspension of the test microorganism (10^6 cells/ml) was prepared by diluting an overnight cultured broth of the organism with Eagle's minimum essential medium (E. MEM). A serially diluted solution of FR109615 in E. MEM (100 μl ) was added to a well of the multi-tray. To the well, the suspension of the test organism was added. The multi-trays were incubated at 37° C. for 20 hours in 5% CO2 atmosphere.

[9] = system: Candida utilis; test: as above; format: cell-based; conditions: Williopsis jadinii, E. MEM, 37° C., 20 hours, 5% CO2, read-out: MIC (minimum inhibitory concentration)
Protocol: as §2, §3, §4

[10] = system: Tricophyton mentagrophytes; test: as above; format: cell-based; conditions: E. MEM, 37° C., 20 hours, 5% CO2, read-out: MIC (minimum inhibitory concentration)
Protocol: as §2, §3, §4

[11] = system: Candida albicans; test: as above; format: cell-based; conditions: E. MEM, 37° C., 20 hours, 5% CO2, read-out: MIC (minimum inhibitory concentration)
Protocol: as §2, §3, §4

[12] = system: Mucor rouxianus; test: as above; format: cell-based; conditions: E. MEM, 37° C., 20 hours, 5% CO2, read-out: MIC (minimum inhibitory concentration)
Protocol: as §2, §3, §4

[13] = system: Staphylococcus aureus Smith; test: Protective effect against bacteria in experimental mice infection (Test 3); format: in vivo, ICR strain; conditions: inoculum 2.5 × 10^8 cfu, 10 mg/kg subcutaneous once a day for 4 days, 11 days observation, all control mice died
Protocol: Test 3 (Protective effect of FR109615 against bacteria in experimental mice infection)
4 Weeks old mice, ICR strain, each weighing 18-21 g. One group consists of 10 mice.
Pathogenic microorganism suspended in saline were injected into mice via the lateral tail vein. After challenge, a saline solution of FR109615 was subcutaneously injected into the mice (Dosage: 10 mg/kg) once a day for 4 days. […] All of the control mice (non-treatment group) died.

[14] = system: pathogenic microorganisms, especially pathogenic fungi such as pathogenic yeast (e.g. Candida albicans); test: Antimicrobial activity against pathogenic microorganisms (general statement)

## N[C@H]1CCC[C@H]1C(=O)O [FR109615, (1R, 2S)-2-aminocyclopentanecarboxylic]
[1]
  ED50: 2.38 mg/kg
[2]
  ED50: 0.78 mg/kg
[3]
  ED50: 3.8 mg/kg
[4]
  ED50: 1.11 mg/kg
[5]
  ED50: 0.87 mg/kg
[6]; Acetone
  Solubility: Insoluble
[6]; Chloroform
  Solubility: Insoluble
[6]; Ethanol
  Solubility: Sparingly soluble
[6]; Ethyl acetate
  Solubility: Insoluble
[6]; Methanol
  Solubility: Sparingly soluble
[6]; Water
  Solubility: Soluble
[7]
  acute toxicity, toxic symptom: No toxic symptom was observed
[8]
  MIC: 8 mg/L (≈ 61.9 µM)
[9]
  MIC: 32 mg/L (≈ 248 µM)
[10]
  MIC: 250 mg/L (≈ 1940 µM)
[11]
  MIC: 16 mg/L (≈ 124 µM)
[12]
  MIC: 500 mg/L (≈ 3870 µM)
[13]
  survival ratio: 100%
[14]
  antimicrobial activity: strong antimicrobial activity
